Assay results as given in ChEMBL document CHEMBL1201862, “PubChem BioAssay data set” (2004).
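All cell lines were grown in 96-well plates and treated with compound for 48 hours. The concentration for 50% growth inhibition is given as GI50.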 Activity calls are given as the source filed them. No stated cut-off is given here; in the data, active = GI50 up to about 1.1 µM and inactive = higher.

Key:
Assay in all cases: NCI-60 cell line screen, 48 h
BT-549 = test system: BT-549
CAKI-1 = test system: CAKI-1
DU-145 = test system: DU-145
EKVX = test system: EKVX
HCC 2998 = test system: HCC 2998
HCT-116 = test system: HCT-116
LOX IMVI = test system: LOX IMVI
LXFL 529 = test system: LXFL 529
M14 = test system: M14
MCF7 = test system: MCF7
OVCAR-4 = test system: OVCAR-4
PC-3 = test system: PC-3
SF-295 = test system: SF-295
SF-539 = test system: SF-539
SK-MEL-5 = test system: SK-MEL-5
SK-OV-3 = test system: SK-OV-3
SNB-75 = test system: SNB-75
TK-10 = test system: TK-10
UACC-62 = test system: UACC-62
HL-60 = test system: HL-60

Measured: GI50

O=C1c2nc3n(c2C(=O)c2c1nc1n2CCC1)CCC3
inactive: BT-549 > 10 µM | CAKI-1 9.35 µM | DU-145 > 10 µM | EKVX 15.6 µM | HCC 2998 8.22 µM | HCT-116 3.03 µM | LOX IMVI 3.1 µM | LXFL 529 9.93 µM | M14 1.76 µM | MCF7 2.68 µM | OVCAR-4 4.71 µM | PC-3 > 10 µM | SF-295 5.37 µM | SF-539 3.64 µM | SK-MEL-5 1.44 µM | SK-OV-3 23.7 µM | SNB-75 15.2 µM | TK-10 27.6 µM | UACC-62 1.85 µM

COc1ccc(C)cc1-c1cc(Sc2ccccc2)c(-c2cc(C)ccc2OC)o1
inactive: CAKI-1 > 31.6 µM | EKVX > 31.6 µM | HCC 2998 > 31.6 µM | HCT-116 > 31.6 µM | HL-60 > 31.6 µM | LOX IMVI > 100 µM | LXFL 529 > 31.6 µM | M14 > 31.6 µM | OVCAR-4 > 31.6 µM | SF-295 > 100 µM | SF-539 > 31.6 µM | SK-MEL-5 > 31.6 µM | SK-OV-3 > 31.6 µM | SNB-75 > 31.6 µM | TK-10 > 31.6 µM | UACC-62 > 31.6 µM

O=S(=O)(N/N=C/c1cccc(Cl)c1Cl)c1ccccc1
inactive: CAKI-1 69.3 µM | EKVX > 100 µM | HCC 2998 > 100 µM | HCT-116 47 µM | HL-60 39.9 µM | LOX IMVI 68.7 µM | LXFL 529 70.6 µM | M14 > 100 µM | OVCAR-4 > 100 µM | SF-295 79.6 µM | SF-539 80 µM | SK-MEL-5 43.6 µM | SK-OV-3 > 100 µM | SNB-75 99.1 µM | TK-10 > 100 µM | UACC-62 > 100 µM

CC(C)(C)c1cc2c(OP(c3ccccc3)c3ccccc3)c(c1)Cc1cc(C(C)(C)C)cc(c1OP(c1ccccc1)c1ccccc1)Cc1cc(C(C)(C)C)cc(c1OP(c1ccccc1)c1ccccc1)Cc1cc(C(C)(C)C)cc(c1OP(c1ccccc1)c1ccccc1)C2
inactive: CAKI-1 > 5 µM | EKVX > 5 µM | HCC 2998 > 5 µM | HCT-116 > 5 µM | HL-60 > 5 µM | LOX IMVI > 5 µM | LXFL 529 > 5 µM | M14 > 5 µM | OVCAR-4 > 5 µM | SF-295 > 5 µM | SF-539 > 5 µM | SK-MEL-5 > 5 µM | SK-OV-3 > 5 µM | SNB-75 > 5 µM | TK-10 > 5 µM | UACC-62 > 5 µM
